Data reported in publication PMC10798532, “Enhanced catalytic performance of penicillin G acylase by covalent immobilization onto functionally-modified magnetic Ni0.4Cu0.5Zn0.1Fe2O4 nanoparticles” (PLOS ONE, 2024).
Where a name gives a salt, the structure may show the parent alone.

Test system: T1, Penicillin G acylase (PGA)
T1 construct: gene pac; alpha and beta subunits arise from one precursor; E. coli is only a guess (docking used PDB 1GM8)
Test: initial hydrolysis rates, Lineweaver-Burk; 6-APA by PDAB colorimetry at […] nm
Type: biochemical
Settings: free enzyme; 20 °C; PBS, pH of kinetic run not printed (optimum pH 8.0); substrate 0.01-0.05 mol/L

Q: How did the Km turn out when `CC1(C)S[C@@H]2[C@H](NC(=O)Cc3ccccc3)C(=O)N2[C@H]1C(=O)O` [Penicillin G potassium salt] was run?
A: Its Km is 22.7 mM.
